In US8039634B2, “Oxazole hydroxamic acid derivatives and use thereof” (SK Holdings Co., Ltd., priority 2005, dated 2011):
≈ marks a conversion by molar mass, not a printed value.

Assays:
HDAC = assay: Inhibition of HDAC activity (fluorometric, HeLa nuclear extract); type: biochemical, human; conditions: 30 min room temperature
Procedure: In order to determine inhibitory activity of a compound in accordance with the present invention on HDAC, evaluation was carried out using an aminocoumarin derivative of ω-acetylated lysine as a substrate for an enzyme. As an enzyme source, a nuclear extract obtained from human cervical cancer cell line HeLa cells was used. The above evaluation was carried out with modification of a method based on the details described in Weegener et al. (2003) Analytical Biochemistry, 321, 203-208. That is, […], […] of nuclear extract and a compound of Example 1 at different concentrations were added and maintained at room temperature for 30 min. Trypsin (10 mg/ml) and Trichostatin A (final concentration: […]) were added to the resulting mixture which was reacted at the same temperature for 20 min, thereby terminating the reaction. The enzyme activity-inhibitory concentration of the compound added was determined using a fluorometer. As a control compound, suberoylanilide hydroxamic acid (SAHA) was used. IC50 in Table 1 below refers to a concentration of the compound that leads to a 50% decrease in activity of HDAC.

HeLa = assay: In vitro toxicity / growth inhibition (CellTiter-Glo), HeLa; type: cell-based; conditions: Homo sapiens, 48 hr
Procedure: (§1) In order to determine in vitro toxicity of a compound in accordance with the present invention, 18 species of human cancer cell lines (HeLa, cervical cancer cell line; HCT116, SW480, SW620, RKO, colon cancer cell lines; H460, H1299, A549, lung cancer cell lines; MCF7, MDA-MB231, MDA-MB453, breast cancer cell lines; Jurkat, K562, THP1, Ramos, U937, blood cancer cell lines; PC3, DU145, prostate cancer cell lines) were used. Cell lines were cultured in RPMI 1640 culture medium containing penicillin/streptomycin (100 units/mL) and heat-inactivated 5% fetal bovine serum (FBS) under standard culture conditions ([…], 5% CO2, and 100% relative humidity). Thereafter, single cell suspension was obtained via trypsin treatment and pipetting. The suspension was diluted with the same medium such that a cell density is in a range of 8×10^3 to 1.5×10^4 cells/well, and was transferred to a 96-well microtiter plate. After culturing for 24 hours, cell cultures were treated with respective compounds of Examples at various concentrations. […] The above evaluation was carried out according to the methods given in a manufacture's manual. GI50 in Table 1 below refers to a concentration that compounds of Examples cause 50% growth inhibition of various cancer cells.

HCT116 = assay: In vitro toxicity / growth inhibition (CellTiter-Glo), HCT116; type: cell-based; conditions: Homo sapiens, HCT-116; HCT116, 48 hr
Procedure: as §1

MCF7 = assay: In vitro toxicity / growth inhibition (CellTiter-Glo), MCF7; type: cell-based; conditions: Homo sapiens; MCF7, 48 hr
Procedure: as §1

Solubility = type: physicochemical
H460 = assay: In vitro toxicity / growth inhibition (CellTiter-Glo), H460; type: cell-based; conditions: Homo sapiens, NCI-H460; H460, 48 hr
Procedure: as §1

Raw cell = assay: Inhibition of LPS-induced NO increases; type: cell-based, Mouse; conditions: 5 μM compound; for NO: LPS, 18 hours, Griess Reagent; for activity at 5 µM: Mus musculus, 18 h, relative to LPS alone control
Procedure: As one of the methods to confirm anti-inflammatory responses, inhibition of increases in nitric oxide (NO) due to lipopolysaccharide (LPS) was carried out. Mouse cell line (Raw cell) was cultured in RPMI 1640 culture medium containing penicillin/streptomycin (100 units/mL) and heat-inactivated 5% fetal bovine serum (FBS) under standard culture conditions ([…], 5% CO2, 37° C., and 100% relative humidity). Test compounds were dissolved in dimethylsulfoxide (DMSO) and were used as a final concentration of 1 to 40 μM. Cells were proliferated to a cell density of 5×10^3 to 2×10^4 cells on a 24-well plate and were treated with the respective compounds (equal amounts of 5 μM) 1 hour prior to treatment with LPS ([…]). The thus-treated cells were cultured for 18 hours, and thereafter the amounts of NO thus produced were measured using Griess Reagent. Measurement was confirmed using an absorption spectrophotometer at 540 nm. The value was expressed as percentage (%) relative to a control in which LPS alone was treated.

Row | Structure (SMILES) | IC50 (HDAC) [µM] | solubility (Solubility) [µg/mL] | GI50 (HeLa) [µM] | GI50 (HCT116) [µM] | GI50 (MCF7) [µM] | GI50 (H460) [µM] | NO (Raw cell) [μM/L] | activity at 5 µM (Raw cell) [%]
1 | O=C(CCCCCCc1nc(-c2ccc(F)cc2)c(-c2cccnc2)o1)NO [Example 15, 7-[4-(4-fluoro-phenyl)-5-pyridin-3-yl-oxazol-2-yl]-heptanoic acid hydroxyamide] | 0.0384 | 2000 (≈ 5220 µM) | 30.1 | – | – | 69 | 66.6 | 65.8
2 | COc1ccc(-c2nc(CCCCCCC(=O)NO)oc2-c2cccnc2)cc1 [Example 13, 7-[4-(4-methoxy-phenyl)-5-pyridin-3-yl-oxazol-2-yl]-heptanoic acid hydroxyamide] | 0.0145 | 900 (≈ 2280 µM) | 3.9 | 3.9 | 1 | 4.4 | 57.1 | 39.2
3 | COc1ccc(-c2oc(CCCCCCC(=O)NO)nc2-c2ccccc2OC)cc1 [Example 11, 7-[4-(2-methoxy-phenyl)-5-(4-methoxy-phenyl)-oxazol-2-yl]-heptanoic acid hydroxyamide] | 0.00724 | 400 (≈ 942 µM) | 1.2 | 2.4 | – | 10.2 | 65.0 | 61.3
4 | CCOc1ccc(-c2oc(CCCCCCC(=O)NO)nc2-c2ccncc2)cc1 [Example 19, 7-[5-(4-ethoxy-phenyl)-4-pyridin-4-yl-oxazol-2-yl]-heptanoic acid hydroxyamide] | 0.00068 | 700 (≈ 1710 µM) | 2.9 | 4 | 1.1 | 4.1 | – | –
5 | CN(C)c1ccc(-c2nc(CCCCCCC(=O)NO)oc2-c2cccnc2)cc1 [Example 14, 7-[4-(4-dimethylamino-phenyl)-5-pyridin-3-yl-oxazol-2-yl]-heptanoic acid hydroxyamide] | 0.00295 | 1000 (≈ 2450 µM) | 7.8 | 8.7 | 8.7 | 23.5 | 69.6 | 74.4
6 | CN(C)c1ccc(-c2oc(CCCCCCC(=O)NO)nc2-c2ccccc2)cc1 [Example 12, 7-[5-(4-dimethylamino-phenyl)-4-phenyl-oxazol-2-yl]-heptanoic acid hydroxyamide] | 0.00501 | 700 (≈ 1720 µM) | 14.1 | 9.8 | 6.9 | 19.5 | 72.9 | 83.7
7 | O=C(CCCCCCc1nc(-c2cccc(F)c2)c(-c2cccnc2)o1)NO [Example 16, 7-[4-(3-fluoro-phenyl)-5-pyridin-3-yl-oxazol-2-yl]-heptanoic acid hydroxyamide] | 0.0323 | 1400 (≈ 3650 µM) | 20.7 | – | – | 52.3 | 63.0 | 55.7
8 | COc1ccc(-c2oc(CCCCCCC(=O)NO)nc2-c2ccncc2)cc1 [Example 18, 7-[5-(4-methoxy-phenyl)-4-pyridin-4-yl-oxazol-2-yl)-heptanoic acid hydroxyamide] | 0.014 | 900 (≈ 2280 µM) | 9.1 | 3.8 | – | 11.7 | 68.6 | 71.6
9 | CCOc1ccc(-c2oc(CCCCCCC(=O)NO)nc2-c2ccccc2)cc1 [Example 8, 7-[5-(4-ethoxy-phenyl)-4-phenyl-oxazol-2-yl]-heptanoic acid hydroxyamide] | 0.0012 | 200 (≈ 490 µM) | 1.5 | 1.2 | – | 4.2 | 63.7 | 57.7
10 | O=C(CCCCCCc1nc(-c2ccccc2)c(-c2ccncc2)o1)NO [Example 17, 7-(4-phenyl-5-pyridin-4-yl-oxazol-2-yl)-heptanoic acid hydroxyamide] | 0.0195 | 900 (≈ 2460 µM) | 3.5 | 5.4 | 1.8 | 7.3 | 59.6 | 46.1
11 | COc1ccc(-c2nc(CCCCCCC(=O)NO)oc2-c2ccc(OC)cc2)cc1 [Example 10, 7-[4,5-bis-(4-methoxy-phenyl)-oxazol-2-yl]-heptanoic acid hydroxyamide] | 0.00047 | 200 (≈ 471 µM) | 3 | 2.4 | 0.8 | 9.2 | – | –

Continued, in another order:

Row | IC50 (HDAC) [µM] | solubility (Solubility) [µg/mL] | Structure (SMILES) | GI50 (HeLa) [µM] | GI50 (HCT116) [µM] | GI50 (MCF7) [µM] | GI50 (H460) [µM] | NO (Raw cell) [μM/L] | activity at 5 µM (Raw cell) [%]
12 | 0.002 | 200 (≈ 549 µM) | O=C(CCCCCCc1nc(-c2ccccc2)c(-c2ccccc2)o1)NO [Example 4, 7-(4,5-diphenyl-oxazol-2-yl)-heptanoic acid hydroxyamide] | 2.5 | 3.5 | 6.6 | – | – | –
13 | 0.00497 | – | O=C(CCCCCCc1nc(-c2ccccc2)c(-c2ccc(F)cc2)o1)NO [Example 9, 7-[5-(4-fluoro-phenyl)-4-phenyl-oxazol-2-yl]-heptanoic acid hydroxyamide] | 14.2 | 5.9 | – | 19.1 | 71.4 | 79.4
14 | 0.002 | 200 (≈ 528 µM) | Cc1ccc(-c2oc(CCCCCCC(=O)NO)nc2-c2ccccc2)cc1 [Example 7, 7-(4-phenyl-5-p-tolyl-oxazol-2-yl)-heptanoic acid hydroxyamide] | 2.4 | 2.7 | – | 9.9 | – | –
15 | 0.00148 | 400 (≈ 1050 µM) | O=C(CCCCCCc1nc(-c2ccccc2)c(-c2cccc(F)c2)o1)NO [Example 6, 7-[5-(3-fluoro-phenyl)-4-phenyl-oxazol-2-yl]-heptanoic acid hydroxyamide] | 10.7 | 9.5 | 3.8 | 15.8 | 70.6 | 77.1
16 | 0.00174 | 300 (≈ 784 µM) | O=C(CCCCCCc1nc(-c2ccccc2)c(-c2ccccc2F)o1)NO [Example 5, 7-[5-(2-fluoro-phenyl)-4-phenyl-oxazol-2-yl]-heptanoic acid hydroxyamide] | 3.6 | 10.7 | – | 14.2 | 69.0 | 72.7
17 | 0.00158 | 200 (≈ 507 µM) | COc1cccc(-c2oc(CCCCCCC(=O)NO)nc2-c2ccccc2)c1 [Example 3, 7-[5-(3-methoxy-phenyl)-4-phenyl-oxazol-2-yl]-heptanoic acid hydroxyamide] | 16.9 | 6.5 | – | – | – | –
18 | 0.00661 | 400 (≈ 1010 µM) | COc1ccccc1-c1oc(CCCCCCC(=O)NO)nc1-c1ccccc1 [Example 2, 7-[5-(2-methoxy-phenyl)-4-phenyl-oxazol-2-yl]-heptanoic acid hydroxyamide] | 9.33 | 8.3 | – | – | 77.9 | 97.8
19 | 0.0017 | 300 (≈ 789 µM) | O=C(CCCCCCc1nc(-c2ccccc2)c(-c2ccc(O)cc2)o1)NO [Example 20, 7-[5-(4-hydroxy-phenyl)-4-phenyl-oxazol-2-yl]-heptanoic acid hydroxyamide] | 2.4 | 1.5 | – | 5.4 | 55.9 | 35.9
